Reference: publication PMC6680510, “Benzotriazine Di-Oxide Prodrugs for Exploiting Hypoxia and Low Extracellular pH in Tumors” (Molecules, 2019)
Read-outs that look alike come from different tables or passages of the source.

How the values were obtained:
[1] = system: SiHa cells; assay: IC50 assay (inhibition of proliferation, 4 h exposure, SRB); details: SiHa; for IC50: Homo sapiens, 4 h
Outline: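 Cells exposed to compound for 4 h in titrated medium, then washed and regrown 5 days under standard conditions (oxia, pHe 7.4). Growth read by sulforhodamine B staining; IC50 from 4-parameter logistic regression of duplicate cultures.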

[2] = system: FaDu cells; assay: as above; assay type: cell-based; details: for IC50: Homo sapiens, 4 h
[3] = system: UT-SCC-74B cells; assay: as above; assay type: cell-based; details: UT-SCC-74B, UT-SCC-74B; for IC50: Homo sapiens, 4 h
Experimental: Cells were seeded in 96-well plates (SiHa or FaDu 1500 cells/well, UT-SCC-74B 800 cells/well) in 100 μL. After incubation for 2 h, the drugs were added in 50 μL of the same titrated medium at 3× the final concentration to duplicate the wells. After a further 4 h the plates were checked for drug precipitation using a phase contrast microscope, then drugs were removed by aspirating and washing with the standard (pH 7.4) medium, then aspirating again and adding 150 μL of the medium. Cultures were then grown for 5 days before staining with sulphorhodamine B and measuring absorbance, with the estimation of IC50 values using 4-parameter logistic regression, as previously carried out.
The medium and plasticware was equilibrated in the chamber for 3 days prior to use. In the anoxia experiments, FaDu cells were plated in poly-L-lysine coated plates (Corning Cat # 356461) to improve attachment. […]
Footnotes: a Number of experiments. b Anoxic cytotoxicity ratio = oxic IC50/anoxic IC50. c pH
cytotoxicity ratio = IC50 at pHe 7.4/ IC50 at pHe 6.5. d Overall ratio = oxic IC50 pHe 7.4 / anoxic IC50 pHe
6.5. Values are means and errors are SEM. For ratios, the errors are root mean square SEM. […]

[4] = system: SiHa cells; assay: IC50 assay modified for chronic hypoxia (oxia, hypoxia, anoxia); assay type: cell-based; details: for IC50: Homo sapiens
Experimental: There are relatively few viable cells in tumors at O2 concentrations as low as in the above anoxic experiments. In addition, extensive changes in gene expression occur under chronic exposure to intermediate O2 concentrations (chronic hypoxia), including the expression of proteins that regulate pHi. […] Therefore, oxic and anoxic exposures were also tested in these same experiments. The 24 h adaptation to hypoxia had little effect on the subsequent growth of the cultures at either pHe value (Figure S6).
To minimize problems with poor cell attachment under chronic hypoxia, the drugs were added from a 3-fold dilution series made in a separate plate, rather than by serial dilution in the plates containing the cells. In addition, the drugs were removed after the 4 h exposure by centrifuging the plates (200g × 5 min) prior to each aspiration. The same modifications were used for the oxic drug exposures in these experiments.

[5] = system: SiHa and SiHa/POR cells; assay: IC50 in SiHa versus SiHa/POR cultures under anoxia; assay type: cell-based; details: 4 h under anoxia, pHe 7.4
Experimental: The lack of effect of POR over-expression on the reductive metabolism of the BTO acids in intact cells led us to compare the cytotoxicities of SN30000 (2), 4a, and 7a in SiHa/POR, and the parental line, under anoxia (Figure 6).
Drug exposure was for 4 h under anoxia, at pHe 7.4, with regrowth under aerobic conditions for 5 days before staining with SRB. Values are means and SEM for the two experiments, each with triplicate cultures at each drug concentration. TEXT PRINTED IN THE PICTURE: Cmpd 2: Ratio 6.75 ± 0.20 | Cmpd 4a: Ratio 3.40 ± 0.22 | Cmpd 7a: Ratio 2.67 ± 0.46

[6] = system: SiHa and FaDu cells; assay: IC50 assay, summary statements over both cell lines; assay type: cell-based; details: read-out: Potency (IC50) under anoxia at pHe 6.5
Experimental: Cells were seeded in 96-well plates (SiHa or FaDu 1500 cells/well, UT-SCC-74B 800 cells/well) in 100 μL. After incubation for 2 h, the drugs were added in 50 μL of the same titrated medium at 3× the final concentration to duplicate the wells. After a further 4 h the plates were checked for drug precipitation using a phase contrast microscope, then drugs were removed by aspirating and washing with the standard (pH 7.4) medium, then aspirating again and adding 150 μL of the medium. Cultures were then grown for 5 days before staining with sulphorhodamine B and measuring absorbance, with the estimation of IC50 values using 4-parameter logistic regression, as previously carried out [85].

[7] = pulse radiolysis, redox indicator MV^2+; cited from earlier work
[8] = set-up: method as in PMID 24737463; details: cited from earlier work
[9] = system: MDCK-II cells with forced expression of BCRP or Pgp; assay: IC50 under anoxia in cells with forced expression of efflux transporters; details: MDCK-II cell lines under anoxia, preliminary experiments
Experimental: expression of BCRP or Pgp.
Cells were seeded at 300 cells/well in DMEM with 10% FBS in 96 well plates in an
anaerobic chamber, allowed to attach for 2 h then exposed to drugs for 4 h under anoxia. Cells were
then washed with fresh medium and grown for 5 days under aerobic conditions before staining with
SRB. Values are mean ± SEM from 2 separate experiments.

[10] = system: SiHa cells; assay: Cellular uptake in stirred aerobic single cell suspensions (HPLC, 3H-mannitol correction)
Experimental: In these experiments, cell pellets were collected by centrifugation and ^3H-mannitol was used as a cell-excluded marker to enable correction for the entrapped extracellular medium.
Log-phase cultures were dissociated with trypsin/EDTA, followed by the addition of the medium with DNAase I (Sigma DN-25) at 100 μg/mL for 5 min at 37 °C to minimize clumping. The cell pellets were collected by centrifugation and resuspended in αMEM with 5% FBS at pH 7.4 or 6.5 to 2 × 10^6 cells/mL. Samples (12 mL) were equilibrated with magnetic stirring at 37 °C under flowing humidified 5% CO2/air or N2 (50–100 mL/min), as previously described [86]. After equilibration for 60 min, the compounds were added in 50 μL of DMSO. The samples (5 mL) were withdrawn 5 and 60 min later, where the cell pellets were then collected by centrifugation and 4 mL of the supernatant was discarded. The pellets were resuspended in the remaining 1 mL, transferred to microcentrifuge tubes containing 7 μL ^3H-mannitol (740 GBq/mmol, American Radiolabeled Chemicals Inc., St. Louis, MO) as an extracellular marker, and then centrifuged (11,000g × 30s). The supernatant was removed and frozen at −80 °C (extracellular samples) and the tubes were centrifuged again, and any remaining medium was carefully removed. Ice-cold MeOH (80 μL) was added to the pellets which were disrupted by pipetting and stored at −80 °C (intracellular samples). When these were thawed for HPLC analysis (Section 4.12), the volume of extracellular water trapped in the pellets was determined by the scintillation counting (PerkinElmer Tri-Carb B2910TR Liquid Scintillation) of 25 μL of each extracellular and intracellular sample in 3 mL of Emulsifier-Safe™ scintillation cocktail (PerkinElmer). The extracellular volume in each intracellular sample was used to correct the intracellular drug concentration as previously described [87].
The samples were analyzed using an Agilent 1200 HPLC with a diode array absorbance detector and autosampler maintained at 4 °C (Agilent Technologies). The frozen samples were thawed, then centrifuged (11,000g × 5 min), and then extracellular samples were injected directly (typically 20 μL), while for the intracellular samples 30 μL was mixed 1:1 with αMEM and 50 μL was injected. […] All calibration curves were linear (R^2 > 0.999). The column was an Agilent ZORBAX Eclipse (XDB-C18, 5u, 2.1 × 150 mm, Agilent Technologies) with a flow rate of 0.4 mL/min. For SN30000 (2), the mobile phase was a mixture of 80% MeCN/water v/v (A), and a 45 mM formate buffer at a pH 4.5, eluting with a linear gradient of 5–100% A over 18 min. The same method was used for the BTO acids, except for 4a, where the aqueous mobile phase pH was reduced to 3.5.
Values are mean and SEM for 3 replicates. ND: Not detected.

[11] = set-up: method as in PMID 28848445; details: cited from earlier work

[O-][n+]1nc(CCCN2CCOCC2)[n+]([O-])c2cc3c(cc21)CCC3 [Compound 2, SN30000, reference compound]
IC50 ([1]; read-out: Anoxic IC50, SiHa, pHe 6.5, 4 h, anoxic): 5.52 ± 2.01 µM
IC50 ([1]; read-out: Anoxic IC50, SiHa, pHe 7.4, 4 h, anoxic): 2.87 ± 0.23 µM
IC50 ([1]; read-out: Oxic IC50, SiHa, pHe 6.5, 4 h, oxic): 253 ± 31 µM
IC50 ([1]; read-out: Oxic IC50, SiHa, pHe 7.4, 4 h, oxic): 292 ± 15 µM
TMR (overall TME ratio = oxic IC50 pHe 7.4/anoxic IC50 pHe 6.5) [1]: 53 ± 19
PCR Anoxic (IC50 at pHe 7.4/IC50 at pHe 6.5) ([1]; anoxic): 0.52 ± 0.19
PCR oxic (IC50 at pHe 7.4/IC50 at pHe 6.5) ([1]; oxic): 1.15 ± 0.15
ACR (anoxic cytotoxicity ratio = oxic IC50/anoxic IC50) ([1]; pHe 6.5): 46 ± 18.0
ACR (anoxic cytotoxicity ratio = oxic IC50/anoxic IC50) ([1]; pHe 7.4): 101 ± 10
PCR (pH cytotoxicity ratio) ([1]; representative experiment (Figure 3), oxia and anoxia): little or no dependence on pHe
ACR (anoxia cytotoxicity ratio) ([1]; representative experiment (Figure 3), pHe 7.4 and 6.5): approximately 140
TMR (oxic IC50 pHe 7.4/anoxic IC50 pHe 6.5) [2]: 29.8 ± 5.7
IC50 ([2]; pHe 6.5, 4 h, anoxic, read-out: Anoxic IC50): 8.63 ± 1.55 µM
IC50 ([2]; pHe 6.5, 4 h, oxic, read-out: Oxic IC50): 277 ± 15 µM
IC50 ([2]; pHe 7.4, 4 h, anoxic, read-out: Anoxic IC50): 4.16 ± 0.35 µM
IC50 ([2]; pHe 7.4, 4 h, oxic, read-out: Oxic IC50): 258 ± 15 µM
PCR Anoxic (IC50 at pHe 7.4/IC50 at pHe 6.5) ([2]; anoxic): 0.48 ± 0.10
PCR oxic (IC50 at pHe 7.4/IC50 at pHe 6.5) ([2]; oxic): 0.93 ± 0.08
ACR (oxic IC50/anoxic IC50) ([2]; pHe 6.5): 32.1 ± 6.04
ACR (oxic IC50/anoxic IC50) ([2]; pHe 7.4): 62.0 ± 6.34
IC50 ([3]; pHe 6.5, 4 h, 20% O2, read-out: Oxic IC50): 190 ± 42 µM
IC50 ([3]; pHe 6.5, 4 h, <0.01% O2, read-out: Anoxic IC50): 6.29 ± 1.79 µM
IC50 ([3]; pHe 7.4, 4 h, 20% O2, read-out: Oxic IC50): 477 ± 65 µM
IC50 ([3]; pHe 7.4, 4 h, <0.01% O2, read-out: Anoxic IC50): 5.92 ± 2.42 µM
TME ratio (oxic IC50 pHe 7.4/anoxic IC50 pHe 6.5) [3]: 75.8 ± 23.9
PCR Anoxic (IC50 at pHe 7.4/IC50 at pHe 6.5) ([3]; anoxic): 0.94± 0.47
PCR oxic (IC50 at pHe 7.4/IC50 at pHe 6.5) ([3]; oxic): 2.51 ± 0.65
ACR (oxic IC50/anoxic IC50) ([3]; pHe 6.5): 30.2 ± 10.9
ACR (oxic IC50/anoxic IC50) ([3]; pHe 7.4): 80.6 ± 34.7
PCR (IC50 for pHe 7.4/IC50 for pHe 6.5) ([4]; 0.2% O2): 1.76 ± 0.43
HCR ([4]; 0.2% O2, both pHe values): approximately 20
PCR (IC50 for pHe 7.4/IC50 for pHe 6.5) ([4]; 20% O2): 1.95 ± 0.66
PCR (IC50 for pHe 7.4/IC50 for pHe 6.5) ([4]; <0.01% O2): 0.84 ± 0.15
IC50 ([4]; 0.2% O2 (24 h before and during 4 h exposure), pHe 6.5): 9.88 ± 2.34 µM
IC50 ([4]; 0.2% O2 (24 h before and during 4 h exposure), pHe 7.4): 17.4 ± 1.02 µM
IC50 ([4]; 4 h, 20% O2, pHe 6.5, 4 h): 207 ± 69 µM
IC50 ([4]; 4 h, 20% O2, pHe 7.4, 4 h): 404 ± 21 µM
IC50 ([4]; 4 h, <0.01% O2, pHe 6.5, 4 h): 3.07 ± 0.38 µM
IC50 ([4]; 4 h, <0.01% O2, pHe 7.4, 4 h): 2.59 ± 0.35 µM
ACR (IC50 for 20% O2/IC50 for <0.01% O2) ([4]; pHe 6.5): 67 ± 24
HCR (IC50 for 20% O2/IC50 for 0.2% O2) ([4]; pHe 6.5): 20.1 ± 8.6
ACR (IC50 for 20% O2/IC50 for <0.01% O2) ([4]; pHe 7.4): 156 ± 23
HCR (IC50 for 20% O2/IC50 for 0.2% O2) ([4]; pHe 7.4): 23.2 ± 1.8
IC50 ratio SiHa / SiHa/POR (fold lower IC50 in POR cell line) [5]: 6.75 ± 0.20
IC50 ratio SiHa / SiHa/POR (fold lower IC50 in POR cell line) ([5]; listed as SN30000): 6.75
IC50 [6]: 2.9 to 8.6 µM
E^0′ one-electron reduction potential [7]: −401 ± 8 [MV^2+] ^g mV
pKa of the radical anion [8]: 5.48 ± 0.26
Effect of overexpression of BCRP or Pgp efflux transporters on sensitivity [9]: no effect
Uptake (Ci/Ce) at 4 °C relative to 37 °C ([10]; SiHa cell suspensions, data not shown): minor increase
Ci ratio (Ci at pHe 6.5/Ci at pHe 7.4) ([10]; aerobic SiHa suspensions, 5 min): 1.09 ± 0.09 fold
Ci ratio (Ci at pHe 6.5/Ci at pHe 7.4) ([10]; aerobic SiHa suspensions, 60 min): 0.95 ± 0.07 fold
Ci/Ce, pHe 6.5 Obs 5 min ([10]; aerobic SiHa suspensions, pHe 6.5, 5 min): 2.75 ± 0.07
Ci/Ce, pHe 6.5 Obs 60 min ([10]; aerobic SiHa suspensions, pHe 6.5, 60 min): 2.37 ± 0.02
Ci/Ce, pHe 7.4 Obs 5 min ([10]; aerobic SiHa suspensions, pHe 7.4, 5 min): 2.48± 0.27
Ci/Ce, pHe 7.4 Obs 60 min ([10]; aerobic SiHa suspensions, pHe 7.4, 60 min): 2.49 ± 0.05

O=C(O)CCc1nc2cc3c(cc2[n+]([O-])n1)CCC3 [Compound 15d, 3-(2-Carboxyethyl)-7,8-dihydro-6H-indeno[5,6-e][1,2,4]triazine 1-Oxide]
Protein bound in mouse plasma [11]: > 90%
